From ChEMBL document CHEMBL5375953, “Discovery of Biaryl Amide Derivatives as Potent, Selective, and Orally Bioavailable RORγt Agonists for Cancer Immunotherapy” (J Med Chem, 2023)

How the values were obtained:
[1] = test system: B16-F10; experiment: Antitumor activity against mouse B16-F10 cells xenografted in C57BL/6 mouse assessed as tumor growth inhibition at 25 mg/kg,ip administrated on day 7 for 8 days relative to control; type: functional; details: B16-F10, 192 h, time 8 day, read-out: TGI
[2] = Metabolic Stability in mouse liver microsome assessed as half life at […] measured upto 60 mins by HPLC-MS/MS analysis; type: ADME; details: liver microsomes
[3] = Volume of distribution at steady state in rat at 1 mg/kg,iv administration measured after 24 hrs by LC-MS/MS analysis; type: ADME, organism-based; details: in vivo, read-out: Vdss
[4] = Metabolic Stability in rat liver microsome assessed as half life at […] measured upto 60 mins by HPLC-MS/MS analysis; type: ADME; details: liver microsomes
[5] = Metabolic Stability in cynomolgus monkey liver microsome assessed as microsomal intrinsic clearance at […] measured upto 60 mins by HPLC-MS/MS analysis; type: ADME, Macaca fascicularis; details: liver microsomes, read-out: CLH
[6] = Half life in rat at 5 mg/kg,po administration measured after 24 hrs by LC-MS/MS analysis; type: ADME, organism-based; details: in vivo
[7] = Metabolic Stability in dog liver microsome assessed as microsomal intrinsic clearance at […] measured upto 60 mins by HPLC-MS/MS analysis; type: ADME, Canis lupus familiaris; details: liver microsomes, read-out: CLH
[8] = Metabolic Stability in rat liver microsome assessed as microsomal intrinsic clearance at […] measured upto 60 mins by HPLC-MS/MS analysis; type: ADME; details: liver microsomes, read-out: CLH
[9] = Toxicity against C57BL/6 mouse xenografted with mouse Lung adenocarcinoma cell line assessed as change in body weight at 25 mg/kg,ip administrated on day 7 for 12 days; type: organism-based; details: in vivo, 288 h, time 12 day
[10] = Toxicity against C57BL/6 mouse xenografted with mouse Lung adenocarcinoma cell line assessed as change in body weight at 100 mg/kg,po administrated on day 7 for 12 days; type: organism-based; details: in vivo, 288 h, time 12 day
[11] = Toxicity against C57BL/6 mouse xenografted with mouse B16-F10 cells assessed as body weight loss at 25 to 100 mg/kg,ip administrated on day 7 for 8 days; type: organism-based; details: in vivo, 192 h, dose 25-100 mg/kg, time 8 day
[12] = Antitumor activity against mouse Lung adenocarcinoma cell line xenografted in C57BL/6 mouse assessed as tumor growth inhibition at 25 mg/kg,ip administrated on day 7 for 12 days relative to control; type: functional; details: 288 h, time 12 day, read-out: TGI
[13] = Cmax in rat at 5 mg/kg,po administration measured after 24 hrs by LC-MS/MS analysis; type: ADME, organism-based; set-up: time 24 hrs, dose 5 mg/kg, route po; details: in vivo
[14] = Metabolic Stability in mouse liver microsome assessed as microsomal intrinsic clearance at […] measured upto 60 mins by HPLC-MS/MS analysis; type: ADME; details: liver microsomes, read-out: CLH
[15] = AUC(infinity) in rat at 5 mg/kg,po administration measured after 24 hrs by LC-MS/MS analysis; type: ADME, organism-based; set-up: time 24 hrs, dose 5 mg/kg, route po; details: in vivo
[16] = Oral bioavailability in dog at 2 mg/kg administration measured after 24 hrs by LC-MS/MS analysis; type: ADME, organism-based, Canis lupus familiaris; details: in vivo
[17] = Oral bioavailability in rat at 5 mg/kg administration measured after 24 hrs by LC-MS/MS analysis; type: ADME, organism-based; details: in vivo
[18] = AUC(infinity) in CD-1 mouse at 1 mg/kg,iv administration measured after 24 hrs by LC-MS/MS analysis; type: ADME, organism-based; set-up: time 24 hrs, dose 1 mg/kg, route iv; details: in vivo
[19] = Antitumor activity against mouse Lung adenocarcinoma cell line xenografted in C57BL/6 mouse assessed as tumor growth inhibition at 50 mg/kg,ip administrated on day 7 for 12 days relative to control; type: functional; details: 288 h, time 12 day, read-out: TGI
[20] = AUC(infinity) in dog at 1 mg/kg,iv administration measured after 24 hrs by LC-MS/MS analysis; type: ADME, organism-based, Canis lupus familiaris; set-up: time 24 hrs, dose 1 mg/kg, route iv; details: in vivo
[21] = AUC(infinity) in dog at 2 mg/kg,po administration measured after 24 hrs by LC-MS/MS analysis; type: ADME, organism-based, Canis lupus familiaris; set-up: dose 2 mg/kg, time 24 hrs, route po; details: in vivo
[22] = Half life in rat at 1 mg/kg,iv administration measured after 24 hrs by LC-MS/MS analysis; type: ADME, organism-based; details: in vivo
[23] = Metabolic Stability in human liver microsome assessed as microsomal intrinsic clearance at […] measured upto 60 mins by HPLC-MS/MS analysis; type: ADME; details: liver microsomes, read-out: CLH
[24] = Half life in dog at 1 mg/kg,iv administration measured after 24 hrs by LC-MS/MS analysis; type: ADME, organism-based, Canis lupus familiaris; details: in vivo
[25] = test system: B16-F10; experiment: Antitumor activity against mouse B16-F10 cells xenografted in C57BL/6 mouse assessed as tumor growth inhibition at 100 mg/kg,ip administrated on day 7 for 8 days relative to control; type: functional; details: B16-F10, 192 h, time 8 day, read-out: TGI
[26] = AUC(infinity) in CD-1 mouse at 5 mg/kg,po administration measured after 24 hrs by LC-MS/MS analysis; type: ADME, organism-based; set-up: dose 5 mg/kg, time 24 hrs, route po; details: in vivo
[27] = Volume of distribution at steady state in CD-1 mouse at 1 mg/kg,iv administration measured after 24 hrs by LC-MS/MS analysis; type: ADME, organism-based; details: in vivo
[28] = Toxicity against C57BL/6 mouse xenografted with mouse B16-F10 cells assessed as animal death at 25 to 100 mg/kg,ip administrated on day 7 for 8 days; type: organism-based; details: in vivo, 192 h, dose 25-100 mg/kg, time 8 day
[29] = Toxicity against C57BL/6 mouse xenografted with mouse Lung adenocarcinoma cell line assessed as change in body weight at 50 mg/kg,ip administrated on day 7 for 12 days; type: organism-based; details: in vivo, 288 h, time 12 day
[30] = target: T1, Nuclear receptor ROR-beta (Homo sapiens, UniProt Q92753); experiment: Agonist activity at human Gal4-fused RORbeta expressed in HEK293T cells assessed as luciferase activity incubated for 16 to 20 hrs by Luciferase reporter gene assay; type: cell-based
T1 sequence (Q92753 whole entry): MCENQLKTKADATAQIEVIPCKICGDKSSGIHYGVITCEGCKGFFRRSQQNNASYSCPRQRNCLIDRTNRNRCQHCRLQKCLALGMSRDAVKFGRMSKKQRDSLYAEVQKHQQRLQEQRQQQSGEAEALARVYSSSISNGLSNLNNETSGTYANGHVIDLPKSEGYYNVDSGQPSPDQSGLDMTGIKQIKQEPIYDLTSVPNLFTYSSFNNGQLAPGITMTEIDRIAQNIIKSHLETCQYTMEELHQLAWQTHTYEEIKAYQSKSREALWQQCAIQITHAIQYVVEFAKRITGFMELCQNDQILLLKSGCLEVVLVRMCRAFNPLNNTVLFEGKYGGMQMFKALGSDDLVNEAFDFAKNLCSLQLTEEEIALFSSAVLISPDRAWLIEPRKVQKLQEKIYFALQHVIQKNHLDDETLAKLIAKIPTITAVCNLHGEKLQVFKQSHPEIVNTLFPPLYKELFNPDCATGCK

[31] = Metabolic Stability in rat liver microsome assessed as intrinsic clearance at […] measured upto 60 mins by HPLC-MS/MS analysis; type: ADME; details: microsomes, 1 h
[32] = test system: B16-F10; experiment: Antitumor activity against mouse B16-F10 cells xenografted in C57BL/6 mouse assessed as tumor growth inhibition at 50 mg/kg,ip administrated on day 7 for 8 days relative to control; type: functional; details: B16-F10, 192 h, time 8 day, read-out: TGI
[33] = Half life in dog at 2 mg/kg,po administration measured after 24 hrs by LC-MS/MS analysis; type: ADME, organism-based, Canis lupus familiaris; details: in vivo
[34] = target: Voltage-gated inwardly rectifying potassium channel KCNH2 (Homo sapiens, UniProt Q12809); experiment: Inhibition of hERG potassium channel by patch clamp assay; type: toxicity
Sequence of Voltage-gated inwardly rectifying potassium channel KCNH2 (Q12809 whole entry): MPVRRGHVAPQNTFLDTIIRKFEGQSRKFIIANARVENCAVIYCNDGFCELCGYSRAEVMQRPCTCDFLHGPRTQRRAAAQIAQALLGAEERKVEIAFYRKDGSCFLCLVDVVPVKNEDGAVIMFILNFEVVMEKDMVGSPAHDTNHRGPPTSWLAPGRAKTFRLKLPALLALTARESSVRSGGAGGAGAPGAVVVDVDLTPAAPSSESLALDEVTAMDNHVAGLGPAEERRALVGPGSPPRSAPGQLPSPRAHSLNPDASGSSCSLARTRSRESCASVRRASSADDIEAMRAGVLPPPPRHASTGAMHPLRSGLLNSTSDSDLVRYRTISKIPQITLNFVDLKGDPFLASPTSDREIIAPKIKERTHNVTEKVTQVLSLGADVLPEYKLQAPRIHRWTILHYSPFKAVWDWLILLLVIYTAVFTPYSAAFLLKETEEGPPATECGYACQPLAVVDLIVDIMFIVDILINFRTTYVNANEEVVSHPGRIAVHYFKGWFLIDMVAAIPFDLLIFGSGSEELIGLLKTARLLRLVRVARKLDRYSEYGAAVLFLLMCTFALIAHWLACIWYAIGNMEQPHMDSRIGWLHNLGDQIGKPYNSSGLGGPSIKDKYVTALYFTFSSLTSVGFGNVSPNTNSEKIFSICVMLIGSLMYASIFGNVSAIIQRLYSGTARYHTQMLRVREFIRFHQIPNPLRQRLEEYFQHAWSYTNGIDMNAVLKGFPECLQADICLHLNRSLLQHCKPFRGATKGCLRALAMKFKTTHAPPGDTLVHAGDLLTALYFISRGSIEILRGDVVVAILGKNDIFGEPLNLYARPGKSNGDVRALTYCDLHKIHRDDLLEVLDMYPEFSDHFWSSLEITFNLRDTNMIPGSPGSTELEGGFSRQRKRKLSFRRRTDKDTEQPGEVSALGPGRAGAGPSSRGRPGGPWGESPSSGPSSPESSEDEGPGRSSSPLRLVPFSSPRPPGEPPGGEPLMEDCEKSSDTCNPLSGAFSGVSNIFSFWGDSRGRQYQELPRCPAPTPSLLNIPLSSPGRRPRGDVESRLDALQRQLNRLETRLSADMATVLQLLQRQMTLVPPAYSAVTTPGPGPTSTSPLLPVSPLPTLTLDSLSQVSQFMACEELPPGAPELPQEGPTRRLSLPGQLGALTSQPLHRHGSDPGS

[35] = Clearance in rat at 1 mg/kg,iv administration measured after 24 hrs by LC-MS/MS analysis; type: ADME, organism-based; details: in vivo

CCS(=O)(=O)c1ccc(CC(=O)Nc2cc(Cl)c(-c3ccc(OC(C)C)c(C#N)c3)c(Cl)c2)cc1
inhibition in vivo at 25 mg/kg [1]: 51.6%
half-life [2]: > 2.42 h
Vd [3]: 2.8 L/kg
half-life [4]: > 2.42 h
microsomal CLint [5]: 44.6 µL/min/mg
half-life [6]: 11.4 h
microsomal CLint [7]: < 9.6 µL/min/mg
microsomal CLint [8]: < 9.6 µL/min/mg
Activity [9]: Non-Toxic
Activity [10]: Non-Toxic
Activity [11]: Non-Toxic
inhibition in vivo at 25 mg/kg [12]: 46.2%
Cmax [13]: 503 ng/mL
microsomal CLint [14]: < 9.6 µL/min/mg
AUC(0-inf) [15]: 10600 ng·h/mL
bioavailability [16]: 52.2%
bioavailability [17]: 39.4%
AUC [18]: 4621.9 ng·h/mL
inhibition in vivo at 50 mg/kg [19]: 75.6%
AUC(0-inf) [20]: 27000 ng·h/mL
AUC(0-inf) [21]: 33000 ng·h/mL
half-life [22]: 11.2 h
microsomal CLint [23]: < 9.6 µL/min/mg
half-life [24]: 46.5 h
inhibition in vivo at 100 mg/kg [25]: 77.9%
AUC(0-inf) [26]: 20600 ng·h/mL
Vdss [27]: 2 L/kg
Activity [28]: Non-Toxic
Activity [29]: Non-Toxic
EC50 [30]: > 10 µM
CLH [31]: < 17.3 µL/min/mg
inhibition in vivo at 50 mg/kg [32]: 54.7%
half-life [33]: 59.1 h
IC50 [34]: > 10 µM
clearance [35]: 3.2 mL/min/kg
